In patent US20230150970A1, “AMINOPYRIMIDINE DERIVATIVES AND THEIR USE AS ARYL HYDROCARBON RECEPTOR MODULATORS” (DONG-A ST CO., LTD., priority 2020, published 2023):
pIC50: −log10 of the molar value.

Target: T1, AhR (Homo sapiens, UniProt P35869)
T1 sequence (P35869 11-848): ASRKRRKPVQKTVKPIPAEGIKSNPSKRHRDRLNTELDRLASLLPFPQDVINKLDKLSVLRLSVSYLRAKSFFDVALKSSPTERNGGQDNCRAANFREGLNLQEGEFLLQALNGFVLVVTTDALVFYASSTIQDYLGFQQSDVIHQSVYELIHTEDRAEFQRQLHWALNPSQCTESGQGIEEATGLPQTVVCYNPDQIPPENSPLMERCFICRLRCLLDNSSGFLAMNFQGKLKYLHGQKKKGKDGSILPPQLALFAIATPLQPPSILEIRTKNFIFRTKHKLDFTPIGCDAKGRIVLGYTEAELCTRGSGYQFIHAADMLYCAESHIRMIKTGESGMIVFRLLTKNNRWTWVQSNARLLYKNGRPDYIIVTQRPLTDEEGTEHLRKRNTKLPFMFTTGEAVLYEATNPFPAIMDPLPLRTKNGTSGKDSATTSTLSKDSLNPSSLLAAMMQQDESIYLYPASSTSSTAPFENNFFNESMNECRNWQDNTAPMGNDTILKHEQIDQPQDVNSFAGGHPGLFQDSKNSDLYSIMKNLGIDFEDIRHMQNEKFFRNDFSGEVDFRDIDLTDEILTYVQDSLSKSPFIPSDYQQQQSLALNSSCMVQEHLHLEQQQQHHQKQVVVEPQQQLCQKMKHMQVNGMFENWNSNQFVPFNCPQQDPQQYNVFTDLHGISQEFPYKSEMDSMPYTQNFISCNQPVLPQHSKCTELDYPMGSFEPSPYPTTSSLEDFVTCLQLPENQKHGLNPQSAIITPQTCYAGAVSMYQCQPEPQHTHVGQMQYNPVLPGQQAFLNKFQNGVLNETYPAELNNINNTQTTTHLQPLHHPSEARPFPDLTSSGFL
Test: In Vitro Assay 1: XRE-luciferase reporter assay, antagonism in human cell line (HepG2)
Conditions: Assay 1: AhR-Luc Human Antagonism (IC50, nM), unmarked values: kynurenine 200 μM, 6 hours
From the text: In Vitro XRE-Luciferase Reporter Assay (In Vitro Assay 1, 2, 3) AhR activation leads the induction of target gene expression such as CYP1A1 and CYPIB1 by AhR binding to AhR-responsive DNA elements also known as xenobiotics responsive elements (XREs). The assay for measuring AhR activity herein is the luciferase assay using cell lines transfected with luciferase reporter plasmid containing XREs at the upstream of the reporter gene. Cells transfected with XRE-luciferase reporter (XRE-Luc), plasmid drive luciferase activity reflecting activation and inhibition of AhR in the cells. […] Kynurenine (an endogenous AhR agonist), was used to stimulate cells to test antagonistic properties of the compounds. The half-maximal inhibitory concentration (IC50), or half-maximal effective concentration (EC50), value was calculated using nonlinear regression (four parameters), with Prism8.0 software (GraphPad).
In Vitro Assay 1: Antagonism in Human Cell Line
HepG2 (human hepatoma cell line) cell line with a XRE-luciferase reporter either transiently or stably (Invivogen) were plated in complete medium and incubated at 37° C. in a CO2 incubator. After 24 hours, cells were treated with kynurenine (50* or 200 μM) alone (negative control) or with test compounds for 6 hours. Luciferase activity was measured with a commercial kit such as the Promega Luciferase kit or Invivogen Luciferase kit. Relative luciferase activity (Firefly/Nano-Luc) was used to calculate IC50 values. […] (IC50 values are grouped as A, B, C and D, whereby A: IC50<0.01 μM; B: 0.01<IC50<0.1 μM; C: 0.1<IC50<1.0 μM; D: IC50>1.0 μM)

SMILES | IC50 [nM]
OC[C@@H]1CN(c2cc(-c3ccc(C(F)(F)F)cc3)nc(-c3cccnc3)n2)CCO1 [Example 279, (S)-(4-(2-(pyridin-3-yl)-6-(4-(trifluoromethyl)phenyl)pyrimidin-4-yl)morpholin-2-yl)methanol] | < 10
OC[C@@H]1CCN(c2cc(-c3ccc(C(F)(F)F)cc3)nc(-c3cccnc3)n2)C[C@H]1F [Example 281, ((3S,4S)-3-fluoro-1-(2-(pyridin-3-yl)-6-(4-(trifluoromethyl)phenyl)pyrimidin-4-yl)piperidin-4-yl)methanol] | < 10
Cn1cc(-c2nc(-c3ccc(N4CCOCC4)cc3)cc(N3CCC(CO)CC3)n2)cn1 [Example 286, (1-(2-(1-methyl-1H-pyrazol-4-yl)-6-(4-morpholinophenyl)pyrimidin-4-yl)piperidin-4-yl)methanol] | 100 to 1000
Cn1cc(-c2nc(-c3ccc(N4CCOCC4)c(F)c3)cc(N3CCC(CO)CC3)n2)cn1 [Example 287, (1-(6-(3-fluoro-4-morpholinophenyl)-2-(1-methyl-1H-pyrazol-4-yl)pyrimidin-4-yl)piperidin-4-yl)methanol] | 100 to 1000
Oc1ncccc1-c1nc(-c2ccc(N3CCOCC3)nc2)cc(N2CC[C@H](O)C2)n1 [Example 295, (S)-3-(4-(3-hydroxypyrrolidin-1-yl)-6-(6-morpholinopyridin-3-yl)pyrimidin-2-yl)pyridin-2-ol] | > 1000
O=[N+]([O-])c1cc(-c2cc(N3CC[C@H](O)C3)nc(-c3cccnc3)n2)ccc1N1CCOCC1 [Example 297, (S)-1-(6-(4-morpholino-3-nitrophenyl)-2-(pyridin-3-yl)pyrimidin-4-yl)pyrrolidin-3-ol] | > 1000
Nc1cc(-c2cc(N3CC[C@H](O)C3)nc(-c3cccnc3)n2)ccc1N1CCOCC1 [Example 298, (S)-1-(6-(3-amino-4-morpholinophenyl)-2-(pyridin-3-yl)pyrimidin-4-yl)pyrrolidin-3-ol] | 10 to 100
CC(=O)Nc1cc(-c2cc(N3CC[C@H](O)C3)nc(-c3cccnc3)n2)ccc1N1CCOCC1 [Example 299, (S)—N-(5-(6-(3-hydroxypyrrolidin-1-yl)-2-(pyridin-3-yl)pyrimidin-4-yl)-2-morpholinophenyl)acetamide] | > 1000
CN(C)CCNc1ccc(-c2cc(N3CC[C@H](O)C3)nc(-c3cccnc3)n2)cn1 [Example 301, (S)-1-(6-(6-((2-(dimethylamino)ethyl)amino)pyridin-3-yl)-2-(pyridin-3-yl)pyrimidin-4-yl)pyrrolidin-3-ol] | 100 to 1000
CC1CN(c2ccc(-c3cc(N4CC[C@H](O)C4)nc(-c4cccnc4)n3)cn2)CC(C)O1 (stereo partly drawn) [Example 302, (3S)-1-(6-(6-(2,6-dimethylmorpholino)pyridin-3-yl)-2-(pyridin-3-yl)pyrimidin-4-yl)pyrrolidin-3-ol] | > 1000
OC[C@@H]1CN(c2cc(-c3ccc(C(F)(F)F)cc3)nc(-c3cccnc3)n2)CCN1 [Example 308, (S)-(4-(2-(pyridin-3-yl)-6-(4-(trifluoromethyl)phenyl)pyrimidin-4-yl)piperazin-2-yl)methanol] | 100 to 1000
OC[C@H]1CN(c2cc(-c3ccc(C(F)(F)F)cc3)nc(-c3cccnc3)n2)CCN1 [Example 309, (R)-(4-(2-(pyridin-3-yl)-6-(4-(trifluoromethyl)phenyl)pyrimidin-4-yl)piperazin-2-yl)methanol] | 10 to 100
O=C(O)[C@@H]1CCN(c2cc(-c3ccc(C(F)(F)F)cc3)nc(-c3cccnc3)n2)C1 [Example 310, (R)-1-(2-(pyridin-3-yl)-6-(4-(trifluoromethyl)phenyl)pyrimidin-4-yl)pyrrolidine-3-carboxylic acid] | 100 to 1000
Cn1cc(-c2nc(-c3ccc(Cl)cc3)cc(N3CC[C@@H](C(=O)O)C3)n2)cn1 [Example 313, (R)-1-(6-(4-chlorophenyl)-2-(1-methyl-1H-pyrazol-4-yl)pyrimidin-4-yl)pyrrolidine-3-carboxylic acid] | > 1000
O[C@H]1CCN(c2cc(-c3ccc(N4CCOCC4)nc3)nc(-c3cccnc3)n2)C1 [Example 315, (S)-1-(6-(6-morpholinopyridin-3-yl)-2-(pyridin-3-yl)pyrimidin-4-yl)pyrrolidin-3-ol] | < 10

The remaining lines, values ahead:

IC50 [nM] | SMILES
< 10 | O[C@H]1CN(c2cc(-c3ccc(Cl)cc3)nc(-c3cccnc3)n2)C[C@@H]1O [Example 284, (3S,4S)-1-(6-(4-chlorophenyl)-2-(pyridin-3-yl)pyrimidin-4-yl)pyrrolidine-3,4-diol]
10 to 100 | OCC1CCN(c2cc(-c3ccc(N4CCOCC4)cc3)nc(-c3cccnc3O)n2)CC1 [Example 285, 3-(4-(4-(hydroxymethyl)piperidin-1-yl)-6-(4-morpholinophenyl)pyrimidin-2-yl)pyridin-2-ol]
100 to 1000 | OCC1CCN(c2cc(-c3ccc4[nH]ncc4c3)nc(-c3cccnc3)n2)CC1 [Example 288, (1-(6-(1H-indazol-5-yl)-2-(pyridin-3-yl)pyrimidin-4-yl)piperidin-4-yl)methanol]
> 1000 | O=C1Cc2cc(-c3cc(N4CCC(CO)CC4)nc(-c4cccnc4)n3)ccc2N1 [Example 290, 5-(6-(4-(hydroxymethyl)piperidin-1-yl)-2-(pyridin-3-yl)pyrimidin-4-yl)indolin-2-one]
> 1000 | O=C1COCCN1c1ccc(-c2cc(N3CCC(CO)CC3)nc(-c3cccnc3)n2)cc1 [Example 291, 4-(4-(6-(4-(hydroxymethyl)piperidin-1-yl)-2-(pyridin-3-yl)pyrimidin-4-yl)phenyl)morpholin-3-one]
> 1000 | O=C(O)c1ccc(-c2cc(N3CCC(CO)CC3)nc(-c3cccnc3)n2)cc1 [Example 292, 4-(6-(4-(hydroxymethyl)piperidin-1-yl)-2-(pyridin-3-yl)pyrimidin-4-yl)benzoic acid]
100 to 1000 | OCC1CCN(c2cc(-c3cncc(F)c3)nc(-c3cccnc3)n2)CC1 [Example 294, (1-(6-(5-fluoropyridin-3-yl)-2-(pyridin-3-yl)pyrimidin-4-yl)piperidin-4-yl)methanol]
> 1000 | O=[N+]([O-])c1cc(-c2cc(N3CC[C@H](O)C3)nc(-c3cccnc3)n2)ccc1F [Example 296, (S)-1-(6-(4-fluoro-3-nitrophenyl)-2-(pyridin-3-yl)pyrimidin-4-yl)pyrrolidin-3-ol]
100 to 1000 | O[C@H]1CCN(c2cc(-c3ccc(F)nc3)nc(-c3cccnc3)n2)C1 [Example 300, (S)-1-(6-(6-fluoropyridin-3-yl)-2-(pyridin-3-yl)pyrimidin-4-yl)pyrrolidin-3-ol]
< 10 | O=S(=O)(CCO)N1CCN(c2cc(-c3ccc(Cl)cc3O)nc(-c3cccnc3)n2)CC1 [Example 303, 5-chloro-2-(6-(4-((2-hydroxyethyl)sulfonyl)piperazin-1-yl)-2-(pyridin-3-yl)pyrimidin-4-yl)phenol]
< 10 | Oc1cc(Cl)ccc1-c1cc(N2CC[C@H](O)C2)nc(-c2cccnc2O)n1 [Example 304, (S)-3-(4-(4-chloro-2-hydroxyphenyl)-6-(3-hydroxypyrrolidin-1-yl)pyrimidin-2-yl)pyridin-2-ol]
> 1000 | Nc1ccc(-c2cc(N3CC[C@H](O)C3)nc(-c3cccnc3)n2)cc1 [Example 305, (S)-1-(6-(4-aminophenyl)-2-(pyridin-3-yl)pyrimidin-4-yl)pyrrolidin-3-ol]
10 to 100 | C=CS(=O)(=O)N1CCN(c2cc(-c3ccc(Cl)cc3)nc(-c3cccnc3)n2)CC1 [Example 306, 4-(4-chlorophenyl)-2-(pyridin-3-yl)-6-(4-(vinylsulfonyl)piperazin-1-yl)pyrimidine]
10 to 100 | OCC1CCN(c2cc(-c3ccc(Cl)cc3Cl)nc(-c3cccnc3)n2)CC1 [Example 307, (1-(6-(2,4-dichlorophenyl)-2-(pyridin-3-yl)pyrimidin-4-yl)piperidin-4-yl)methanol]
100 to 1000 | O=C(O)[C@@H]1CCN(c2cc(-c3ccc(Cl)cc3)nc(-c3cccnc3)n2)C1 [Example 311, (R)-1-(6-(4-chlorophenyl)-2-(pyridin-3-yl)pyrimidin-4-yl)pyrrolidine-3-carboxylic acid]
< 10 | Oc1cc(Cl)ccc1-c1cc(N2CC[C@H](O)C2)nc(-c2cccnc2)n1 [Example 316, (S)-1-(6-(4-chloro-2-hydroxyphenyl)-2-(pyridin-3-yl)pyrimidin-4-yl)pyrrolidin-3-ol]
> 1000 | Oc1ncccc1-c1cc(N2CC[C@H](O)C2)nc(-c2cccnc2)n1 [Example 317, (S)-3-(6-(3-hydroxypyrrolidin-1-yl)-2-(pyridin-3-yl)pyrimidin-4-yl)pyridin-2-ol]

Same assay, conditions: read-out: Assay 1: AhR-Luc Human Antagonism (IC50), unmarked values: kynurenine 200 μM, 6 hours

pIC50 | SMILES
< 6.00 | Cn1ccc(-c2cc(N3CCC(CO)CC3)nc(-c3cccnc3)n2)n1 [Example 293, 4 (1-(6-(1-methyl-1H-pyrazol-3-yl)-2-(pyridin-3-yl)pyrimidin-4-yl)piperidin-4-yl)methanol]
